Measurements from paper PMC5306082, “Physiologically based kinetic modeling of the bioactivation of myristicin” (Archives of Toxicology, 2016).

How the values were obtained:
[1] = Glucuronidation of 1′-hydroxymyristicin, male rat liver S9; type: in vitro ADME
Experimental: (§1) The kinetic constants for the metabolic conversion of 1′-hydroxymyristicin to 1′-hydroxymyristicin glucuronide (HMG) by both male rat and human liver fractions were determined as described previously for the related 1′-hydroxyalkenylbenzenes (Punt et al. [2008]; van den Berg et al. [2012]; Punt et al. [2009]; Martati et al. [2011], [2012]; Al-Subeihi et al. [2011], [2012]). Briefly, incubations contained (final concentrations) 10 mM of UDPGA and 0.5 mg/ml of male Sprague–Dawley or pooled gender human S9 protein in 0.2 M Tris–HCl (pH 7.4) containing 10 mM of MgCl2. To overcome enzyme latency and to obtain maximal glucuronidation activity, incubations containing S9 were pretreated on ice with 0.025 mg/ml alamethicin added from a 200 times concentrated stock dissolved in methanol (Fisher et al. [2000]; Lin and Wong [2002]). After 15 min of alamethicin treatment, samples were pre-incubated at 37 °C for 1 min, and reactions were subsequently started by adding 1′-hydroxymyristicin at final concentrations of 10 to 1200 μM. 1′-Hydroxymyristicin was added from 100 times concentrated stock solutions in DMSO. The reaction mixtures were incubated for 30 and 180 min for rat and human, respectively, and terminated by adding 25 µl (0.25 times the incubation volume) of ice-cold ACN. Blank incubations were carried out in the absence of the cofactor UDPGA. Experiments were performed in triplicate. The longer incubation time in human samples was required due to the lower rate of glucuronidation. The formation of 1′-hydroxymyristicin glucuronide was linear with time and the S9 protein concentration under the experimental conditions described. All samples were centrifuged for 5 min at 16,000×g, and the supernatant was stored at −20 °C until ultra-performance liquid chromatography (UPLC) analysis.
(§2) 1′-Hydroxymyristicin glucuronide was estimated based on the comparison of the peak area of the formed metabolite to the calibration curve of 1′-hydroxymyristicin at a wavelength of 210 nm. The flow rate was 0.6 ml/min. The gradient was made using a mixture of ACN and ultrapure water containing 0.1 % (v/v) TFA.

[2] = Glucuronidation of 1′-hydroxymyristicin, human liver S9; type: in vitro ADME
Experimental: as §1, §2

[3] = Oxidation of 1′-hydroxymyristicin to 1′-oxomyristicin, rat liver microsomes; type: in vitro ADME
Experimental: (§3) The kinetic constants for the enzymatic conversion of 1′-hydroxymyristicin to 1′-oxomyristicin were determined using incubation mixtures containing (final concentrations) 3 mM NAD^+, 2 mM GSH, and 1 mg/ml rat or human liver microsomes in 0.2 M Tris–HCl (pH 7.4). GSH was added to the incubation mixtures to trap the reactive 1′-oxo metabolite formed after oxidation of 1′-hydroxymyristicin. The level of GSH in the incubations was optimized in a previous study to obtain maximum scavenging of 1′-oxoestragole (Punt et al. [2009]). To this end, incubations were performed in the presence of increasing concentrations of GSH, ranging from 2 to 10 mM. […] Kinetic constants for this reaction in rat and human liver were derived by performing incubations with NAD^+ as a cofactor, given that in rat and human liver, NAD^+ is mainly present in an oxidized form with levels of NAD^+ being much higher than those of NADH. In a previous study, it was shown that the highest level of 1′-hydroxy alkenylbenzene oxidation occurs in incubations with microsomes in the presence of NAD^+ as cofactor. […] The enzyme responsible for the oxidation may be 17β-hydroxysteroid dehydrogenase type 2 (17β-HSD2) (Punt et al. [2010]). Prior to the addition of 1′-hydroxymyristicin at final concentrations ranging between 10 and 4000 μM to the incubation mixture from 100 times concentrated stock solutions in DMSO, samples were pre-incubated for 1 min at 37 °C. Reactions were terminated after 10 min of incubation at 37 °C by adding 25 μl (0.25 times the incubation volume) of ice-cold ACN. The formation of the GSH conjugate of 1′-oxomyristicin (GS-1′-oxomyristicin) was linear with time and microsomal protein concentration under the experimental conditions used. Blank incubations were performed without the cofactor NAD^+. Incubations were performed in triplicate. All samples were centrifuged for 5 min at 13,000×g, and the supernatant was stored at −20 °C until UPLC analysis.
(§4) Quantification of GS-1′-oxomyristicin was based on a calibration curve of the GSH adduct of the synthesized 1′-oxymyristicin made as previously described (van den Berg et al. [2012]; Punt et al. [2009]; Martati et al. [2011]; Al-Subeihi et al. [2011]). In short, a 60 μM concentration of the synthetic standard of 1′-oxomyristicin, dissolved in ACN, was incubated with different concentrations of GSH (i.e., 0–20 μM) in 0.2 M Tris–HCl (pH 7.4) for 6 h at 37 °C, resulting in full conversion of the GSH to GS-1′-oxymyristicin. Quantification was done by comparing the peak areas of the formed GS-1′-oxo metabolite in the incubation mixtures with peak areas of the GS-1′-oxymyristicin calibration curve thus obtained at a wavelength of 212 nm. The gradient for analysis of the metabolite consisted of a mixture of ACN and ultrapure water containing 0.1 % (v/v) TFA. The flow rate was 0.6 ml/min, The gradient started with 10 % ACN, increased to 30 % ACN over 2.5 min, after which ACN was increased to 80 % over 0.5 min, kept at 80 % for 0.5 min, followed by a decrease to 10 % over 0.5 min, and finally kept at 10 % for 0.5 min.

[4] = Oxidation of 1′-hydroxymyristicin to 1′-oxomyristicin, human liver microsomes; type: in vitro ADME
Experimental: as §3, §4

[5] = Microsomal conversion of myristicin, male rat liver microsomes; type: in vitro ADME; details: for Vmax / In vitro catalytic efficiency: formation of the metabolite from myristicin; for Vmax: NADPH, mean of three ± SD; for In vitro catalytic efficiency: Vmax/Km × 1000; for Scaled Vmax, in vivo / In vivo catalytic efficiency: from myristicin; for Scaled Vmax, in vivo: microsomal protein yield 35 mg/g liver; for In vivo catalytic efficiency: scaled Vmax/Km
Experimental: (§5) First, it was determined which organs are involved in the biotransformation of myristicin in rat and human. For this purpose, liver, kidney, lung, and small intestine microsomes from male Sprague–Dawley rat and pooled gender human were used. Incubations were performed by adding myristicin to incubation mixtures containing 1 mg/mL of the microsomal protein preparations and 3 mM NADPH in 0.2 M Tris–HCl (pH 7.4). After 1 min of pre-incubation at 37 °C, myristicin (final concentration, 1000 μM) was added from a 100 times concentrated stock solution in DMSO so that the final DMSO content was 1 % (v/v). Incubations were carried out for 30 min after which the reactions were terminated by adding 25 µl (0.25 times the incubation volume) of ice-cold ACN. Samples were centrifuged for 5 min at 13,000×g, and the supernatant was stored at −20 °C until UPLC analysis. As metabolism of myristicin was observed only in incubations with liver microsomes for male rats and pooled gender human, the determination of kinetic constants for the formation of microsomal metabolites was performed only for the liver fractions. Incubations to determine kinetic constants were performed following the conditions described above using final concentrations of myristicin from 25 to 1000 μM for rat and human liver. In all incubations, the final concentration of DMSO, in which myristicin was dissolved, was kept at 1 % (v/v). The formation of different microsomal metabolites was linear with time and microsomal protein concentration under the conditions described. Blank incubations were performed in the absence of the cofactor NADPH. All incubations were performed in triplicate.
(§6) Secondary metabolism of the relevant 1′-hydroxy metabolite of myristicin was taken into account by determining the kinetic constants for its conversion in (a) glucuronidation, (b) sulfation, and (c) oxidation, again under conditions that allowed adequate definition of kinetic constants and with <10 % substrate conversion. Incubation samples were subjected to UPLC analysis that was performed as described previously (Punt et al. [2008]). Identification was achieved by comparing the UV spectra of the formed metabolites to the spectra of the synthesized 1′-hydroxymyristicin and 1′-oxomyristicin reference standards. Quantification of all formed metabolites was done by comparing the peak areas to those of calibration curves of the corresponding reference compounds, determined using UPLC with photodiode array detection (UPLC-PDA). The UPLC system was composed of a Waters (Waters, Milford, MA) Acquity solvent manager, sample manager, and photodiode array detector, equipped with Water Acquity UPLC BEH C18 column.
(§7) The gradient for analysis of microsomal metabolites was performed with 100 % ACN and ultrapure water containing 0.1 % (v/v) TFA. The flow rate was 0.6 ml/min. The gradient started at 10 % ACN, increased to 50 % ACN over 4 min, increased to 80 % over 0.5 min, followed by decrease to 10 % ACN over 0.5 min, and finally kept at 10 % for 1 min.

[6] = Microsomal conversion of myristicin, human liver microsomes; type: in vitro ADME; details: for Vmax / In vitro catalytic efficiency: formation of the metabolite from myristicin; for Vmax: NADPH, mean of three ± SD; for In vitro catalytic efficiency: Vmax/Km × 1000; for Scaled Vmax, in vivo / In vivo catalytic efficiency: from myristicin; for Scaled Vmax, in vivo: microsomal protein yield 32 mg/g liver; for In vivo catalytic efficiency: scaled Vmax/Km
Experimental: as §5, §6, §7

DNA = details: ref Zhou et al. [2007a]; Kobets et al. [2016]; Phillips et al. [1984]; Randerath et al. [1984]; cited from earlier work
[7] = test system: freshly isolated rat hepatocytes in primary culture; details: 10^−6 to 10^−3 M; ref Howes et al. [1990]; cited from earlier work
[8] = 1′-hydroxymyristicin to its glucuronide, S9, UDPGA
[9] = 1′-hydroxymyristicin to its glucuronide, Vmax/Km
[10] = glucuronidation of 1′-hydroxymyristicin, S9 protein yield 143 mg/g liver
[11] = glucuronidation of 1′-hydroxymyristicin, scaled Vmax/Km
[12] = 1′-hydroxymyristicin to 1′-oxomyristicin, Vmax/Km
[13] = 1′-hydroxymyristicin to 1′-oxomyristicin, microsomes, NAD+, GSH trapping
[14] = oxidation of 1′-hydroxymyristicin, scaled Vmax/Km

C=CC(OC1OC(C(=O)O)C(O)C(O)C1O)c1cc(OC)c2c(c1)OCO2 (stereo not shown) [1′-Hydroxymyristicin glucuronide, 1′-hydroxymyristicin glucuronide]
Vmax [1, 8]: 8.6 ± 2.0 nmol min^−1 (mg microsomal or S9 protein)^−1
In vitro catalytic efficiency [1, 9]: 10.287 μl min^−1 (mg microsomal or S9 protein)^−1
Scaled Vmax, in vivo [1, 10]: 73.788 μmol/h/g tissue
In vivo catalytic efficiency [1, 11]: 0.0883 ml/h/g tissue
Km at 30 min ([1]; male, Sprague-Dawley, rat, pH 7.4): 836 ± 336 µM
Vmax [2, 8]: 0.08 ± 0.03 nmol min^−1 (mg microsomal or S9 protein)^−1
In vitro catalytic efficiency [2, 9]: 0.025 μl min^−1 (mg microsomal or S9 protein)^−1
Km at 180 min ([2]; both sexes, human, pH 7.4): 3140 ± 2430 µM
Scaled Vmax, in vivo [2, 10]: 0.6864 μmol/h/g tissue
In vivo catalytic efficiency [2, 11]: 0.0002 ml/h/g tissue

C=CC(=O)c1cc(OC)c2c(c1)OCO2 [1′-Oxomyristicin, 1′-oxomyristicin]
In vitro catalytic efficiency [3, 12]: 7.369 μl min^−1 (mg microsomal or S9 protein)^−1
Vmax [3, 13]: 43.64 ± 20.9 nmol min^−1 (mg microsomal or S9 protein)^−1
Scaled Vmax, in vivo ([3]; oxidation of 1′-hydroxymyristicin, microsomal protein yield 35 mg/g liver): 91.644 μmol/h/g tissue
In vivo catalytic efficiency [3, 14]: 0.0155 ml/h/g tissue
In vitro catalytic efficiency [4, 12]: 9.864 μl min^−1 (mg microsomal or S9 protein)^−1
Vmax [4, 13]: 32 ± 14 nmol min^−1 (mg microsomal or S9 protein)^−1
Scaled Vmax, in vivo ([4]; oxidation of 1′-hydroxymyristicin, microsomal protein yield 32 mg/g liver): 61.44 μmol/h/g tissue
In vivo catalytic efficiency [4, 14]: 0.0189 ml/h/g tissue

COc1cc(CC(O)CO)cc2c1OCO2 (stereo not shown) [2′,3′-Dihydroxymyristicin]
Vmax [5]: 0.44 ± 0.08 nmol min^−1 (mg microsomal or S9 protein)^−1
In vitro catalytic efficiency [5]: 27.5 μl min^−1 (mg microsomal or S9 protein)^−1
Scaled Vmax, in vivo [5]: 0.924 μmol/h/g tissue
In vivo catalytic efficiency [5]: 0.0578 ml/h/g tissue
Vmax [6]: 0.08 ± 0.01 nmol min^−1 (mg microsomal or S9 protein)^−1
In vitro catalytic efficiency [6]: 2.424 μl min^−1 (mg microsomal or S9 protein)^−1
Scaled Vmax, in vivo [6]: 0.154 μmol/h/g tissue
In vivo catalytic efficiency [6]: 0.0047 ml/h/g tissue

COc1cc(/C=C/CO)cc2c1OCO2 [3′-Hydroxymyristicin, 3′-hydroxymyristicin]
Vmax [5]: 0.47 ± 0.09 nmol min^−1 (mg microsomal or S9 protein)^−1
In vitro catalytic efficiency [5]: 5.663 μl min^−1 (mg microsomal or S9 protein)^−1
Scaled Vmax, in vivo [5]: 0.987 μmol/h/g tissue
In vivo catalytic efficiency [5]: 0.0119 ml/h/g tissue
Vmax [6]: 0.29 ± 0.14 nmol min^−1 (mg microsomal or S9 protein)^−1
In vitro catalytic efficiency [6]: 0.178 μl min^−1 (mg microsomal or S9 protein)^−1
Scaled Vmax, in vivo [6]: 0.557 μmol/h/g tissue
In vivo catalytic efficiency [6]: 0.0003 ml/h/g tissue

C=CCc1ccc(OC)cc1 [estragole]
DNA adduct formation, result (DNA): positive results

C=CCc1ccc(OC)c(OC)c1 [methyleugenol]
DNA adduct formation, result (DNA): positive results
unscheduled DNA synthesis (UDS) [7]: induced unscheduled DNA synthesis (UDS)
